From patent publication US20120220581A1, “IMIDAZO[1,2-b]PYRIDAZINE DERIVATIVES AND THEIR USE AS PDE10 INHIBITORS” (Janssen-Cilag, S.A., priority 2009, published 2012) come the findings set out here.

Each structure is given as a SMILES string. Like-named read-outs stand apart in the source and are kept apart here.

The target in assay [1] is T1, Rat recombinant PDE10A (rPDE10A2) (Rattus norvegicus, UniProt Q9QYJ6).
T1 construct: inferred from the Ni metal chelate purification; made in house; host or cells: Sf9 insect cells (baculovirus)
T1 sequence (Q9QYJ6 1-794): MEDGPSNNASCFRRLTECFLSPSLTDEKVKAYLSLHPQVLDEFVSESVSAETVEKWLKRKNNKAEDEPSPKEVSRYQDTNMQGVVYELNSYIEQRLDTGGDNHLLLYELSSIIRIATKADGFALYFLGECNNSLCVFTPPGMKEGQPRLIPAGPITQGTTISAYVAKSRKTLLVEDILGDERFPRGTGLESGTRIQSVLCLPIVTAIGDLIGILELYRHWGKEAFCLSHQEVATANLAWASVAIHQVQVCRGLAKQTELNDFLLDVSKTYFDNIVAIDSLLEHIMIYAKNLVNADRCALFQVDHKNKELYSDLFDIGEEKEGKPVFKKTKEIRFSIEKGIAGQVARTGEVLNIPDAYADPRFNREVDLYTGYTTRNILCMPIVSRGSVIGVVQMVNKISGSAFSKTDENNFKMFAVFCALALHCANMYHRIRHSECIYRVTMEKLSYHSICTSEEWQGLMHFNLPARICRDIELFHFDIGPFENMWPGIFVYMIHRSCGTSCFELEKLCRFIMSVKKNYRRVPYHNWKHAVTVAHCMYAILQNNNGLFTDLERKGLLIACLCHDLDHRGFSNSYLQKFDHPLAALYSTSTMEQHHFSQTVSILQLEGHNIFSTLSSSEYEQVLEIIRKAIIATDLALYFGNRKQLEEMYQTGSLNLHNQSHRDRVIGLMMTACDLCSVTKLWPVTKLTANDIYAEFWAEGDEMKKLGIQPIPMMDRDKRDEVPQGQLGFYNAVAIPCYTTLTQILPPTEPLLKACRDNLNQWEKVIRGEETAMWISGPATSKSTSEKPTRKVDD
Nature of the assay: In vitro assay PDE10A (SPA, 3H-cAMP). Type of assay: biochemical. In outline:
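Rat PDE10A2 expressed in Sf9 cells and Ni-purified; incubated with 60 nM cAMP plus 0.008 μCi 3H-cAMP in 50 mM Tris pH 7.8, 8.3 mM MgCl2, 1.7 mM EGTA for 60 min at room temperature. Product quantified by scintillation proximity counting; final DMSO 1%.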

The target in a further assay is PDE4D3 (Homo sapiens, UniProt Q08499). Nature of the assay: In vitro PDE selectivity assay (SPA), PDE4D3. The note with it: hPDE4D3; read-out: PDE 4D3 (expressed as pIC50) (converted). Type of assay: biochemical. As for the experimental part:
(§1) Rat recombinant PDE10A (rPDE10A2) was expressed in Sf9 cells using a recombinant rPDE10A baculovirus construct. Cells were harvested after 48 h of infection and the rPDE10A protein was purified by metal chelate chromatography on Ni-sepharose 6FF. Tested compounds were dissolved and diluted in 100% DMSO to a concentration 100 fold of the final concentration in the assay. Compound dilutions (0.4 μl) were added in 384 well plates to 20 μl of incubation buffer (50 mM Tris pH 7.8, 8.3 mM MgCl2, 1.7 mM EGTA). 10 μl of rPDE10A enzyme in incubation buffer was added and the reaction was started by addition of 10 μl substrate to a final concentration of 60 nM cAMP and 0.008 μCi ^3H-cAMP. The reaction was incubated for 60 minutes at room temperature. After incubation, the reaction was stopped with 20 μl of stop solution consisting of 17.8 mg/ml PDE SPA (scintillation proximity assay) beads. After sedimentation of the beads during 30 minutes the radioactivity was measured in a Perkin Elmer Topcount scintillation counter and results were expressed as cpm. For blanc values the enzyme was omitted from the reaction and replaced by incubation buffer. Control values were obtained by addition of a final concentration of 1% DMSO instead of compound. The same assay principle is applied for the measurement of the affinity of the compound for other members of the PDE family with appropriate modifications in incubation buffer, substrate concentration, incubation time and stop solution. An overview of the different protocols is presented in table A. A best fit curve is fitted by a minimum sum of squares method to the plot of % of control value substracted with blanc value versus compound concentration and the half maximal inhibitory concentration (IC50) value is derived from this curve.
(§2) The compounds of the invention are generally selective for PDE10 compared to other PDEs and there are a few that also have affinity for PDE1B1, 4D3 and 5A3.

Another assay has as its target PDE5A3 (Homo sapiens, UniProt O76074). Nature of the assay: In vitro PDE selectivity assay (SPA), PDE5A3. Format: biochemical. The note with it: hPDE5A3; read-out: PDE 5A3 (expressed as pIC50) (converted). How it is done:
as §1, §2

The target in assay [2] is other members of the PDE family (Homo sapiens, UniProt O00408). Nature of the assay: In vitro PDE selectivity assay (SPA), other members of the PDE family (protocols in Table A). Format: biochemical. The note with it: hPDE2A; read-out: PDE 2A (expressed as pIC50) (converted). In outline:
(§3)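 Inhibition of each PDE isoform was measured by scintillation proximity assay with ³H-cyclic nucleotide substrate, using incubation buffer, substrate concentration, incubation time and stop solution adapted per isoform. Compounds were tested in dose-response against 1% DMSO controls and enzyme-free blanks. IC50 came from a least-squares fit of blank-subtracted % of control versus concentration.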

The target of assay [3] is other members of the PDE family (Homo sapiens, UniProt O76083). The assay is described as above. Format: biochemical. The note with it: hPDE9A; read-out: PDE 9A (expressed as pIC50) (converted). In outline: as §3
The target in assay [4] is other members of the PDE family (Homo sapiens, UniProt Q13946). The description is as above. As to conditions: hPDE7A1; read-out: PDE 7A (expressed as pIC50) (converted). Type of assay: biochemical. In outline: as §3
For assay [5], the target named is other members of the PDE family (Homo sapiens, UniProt Q14432). The description is as above. Format: biochemical. The note with it: hPDE3A; read-out: PDE 3A (expressed as pIC50) (converted). Summed up:
as §3

The target in assay [6] is other members of the PDE family (Homo sapiens, UniProt Q9HCR9). Described as above. Format: biochemical. As to conditions: hPDE11A4; read-out: PDE 11A4 (expressed as pIC50) (converted). Summed up: as §3
Assay [7] has as its system apomorphine-induced stereotypy in rats. Nature of the assay: Apomorphine-induced stereotypy in rats (APO). Type of assay: in vivo. The note with it: Rattus norvegicus; dose at which 50% of the tested animals show the effect; ≧: active in 30% of the animals at the indicated dose; ≦: active in 60%. How it is done: Apomorphine (1.0 mg/kg, i.v.)-induced stereotypy (compulsive sniffing, licking, chewing) was scored every 5 min over the first hour after injection of apomorphine, following a 1 hour interval pre-treatment with the test compound. The score system was: (3) pronounced, (2) moderate, (1) slight, and (0) absent.

The next assay addresses T2, PDE10 (Rattus norvegicus, UniProt Q9QYJ6).
T2 construct: from tissue; host or cells: rat brain sections, striatum (in vivo dosing, ex vivo autoradiography)
T2 sequence (Q9QYJ6 1-794): T1 sequence (Q9QYJ6 1-794)
Nature of the assay: PDE10 occupancy ([3H]-MP-10, striatum). The note with it: for receptor occupancy at 10 mg/kg / ED50: rat, sc; for receptor occupancy at 10 mg/kg: single dose 10 mg/kg, subcutaneous, read-out: SD sc % occupancy at 10 mg/kg; for ED50: dose response, subcutaneous administration, read-out: PDE10 in vivo occupancy ED50 sc. Format: in vivo. As for the experimental part:
Dose-response or single dose experiments were performed to measure PDE10 occupancy 1 hour after subcutaneous (s.c.) or oral (p.o.) administration. Male Wistar rats (200 g) were treated by s.c. or p.o. administration of various PDE10 inhibitors. The PDE10 radioligand [^3H]-MP-10 (10 μCi/animal) was injected intravenously (i.v.) 30 minutes before sacrifice. Brains were immediately removed from the skull and rapidly frozen. Twenty μm-thick brain sections were cut using a cryostat-microtome, thaw-mounted on microscope slides and loaded in a β-imager to quantify PDE10 occupancy in the striatum.

The mark [8] stands for this setting: Table 4 in vitro selectivity, read-out: PDE 10A2 (expressed as pIC50) (converted).
Where [9] appears, read: pIC50 corresponds to the −log IC50 expressed in mol/L, read-out: PDE10A2 pIC50 (converted).

PDE4D3, sequence (Q08499 1-673 isoform Q08499-2): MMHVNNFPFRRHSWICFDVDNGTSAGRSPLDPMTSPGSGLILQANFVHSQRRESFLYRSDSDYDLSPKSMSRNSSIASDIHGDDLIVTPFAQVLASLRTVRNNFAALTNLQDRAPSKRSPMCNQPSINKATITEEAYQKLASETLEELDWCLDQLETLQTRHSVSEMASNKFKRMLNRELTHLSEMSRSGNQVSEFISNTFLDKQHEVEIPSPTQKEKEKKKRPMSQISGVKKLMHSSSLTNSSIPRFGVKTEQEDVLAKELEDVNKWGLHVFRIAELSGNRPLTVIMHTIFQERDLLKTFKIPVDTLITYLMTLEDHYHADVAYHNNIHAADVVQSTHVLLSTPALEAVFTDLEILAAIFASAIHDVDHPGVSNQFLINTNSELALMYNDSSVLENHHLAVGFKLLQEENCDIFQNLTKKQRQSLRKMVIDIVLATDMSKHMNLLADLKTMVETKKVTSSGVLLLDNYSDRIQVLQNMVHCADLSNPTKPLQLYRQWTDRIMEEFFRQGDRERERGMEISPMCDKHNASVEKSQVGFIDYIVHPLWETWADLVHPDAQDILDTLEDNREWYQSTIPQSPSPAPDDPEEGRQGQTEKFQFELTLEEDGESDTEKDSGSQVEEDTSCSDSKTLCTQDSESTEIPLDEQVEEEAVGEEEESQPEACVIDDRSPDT
other members of the PDE family (Homo sapiens, UniProt Q14432), sequence (Q14432 whole entry): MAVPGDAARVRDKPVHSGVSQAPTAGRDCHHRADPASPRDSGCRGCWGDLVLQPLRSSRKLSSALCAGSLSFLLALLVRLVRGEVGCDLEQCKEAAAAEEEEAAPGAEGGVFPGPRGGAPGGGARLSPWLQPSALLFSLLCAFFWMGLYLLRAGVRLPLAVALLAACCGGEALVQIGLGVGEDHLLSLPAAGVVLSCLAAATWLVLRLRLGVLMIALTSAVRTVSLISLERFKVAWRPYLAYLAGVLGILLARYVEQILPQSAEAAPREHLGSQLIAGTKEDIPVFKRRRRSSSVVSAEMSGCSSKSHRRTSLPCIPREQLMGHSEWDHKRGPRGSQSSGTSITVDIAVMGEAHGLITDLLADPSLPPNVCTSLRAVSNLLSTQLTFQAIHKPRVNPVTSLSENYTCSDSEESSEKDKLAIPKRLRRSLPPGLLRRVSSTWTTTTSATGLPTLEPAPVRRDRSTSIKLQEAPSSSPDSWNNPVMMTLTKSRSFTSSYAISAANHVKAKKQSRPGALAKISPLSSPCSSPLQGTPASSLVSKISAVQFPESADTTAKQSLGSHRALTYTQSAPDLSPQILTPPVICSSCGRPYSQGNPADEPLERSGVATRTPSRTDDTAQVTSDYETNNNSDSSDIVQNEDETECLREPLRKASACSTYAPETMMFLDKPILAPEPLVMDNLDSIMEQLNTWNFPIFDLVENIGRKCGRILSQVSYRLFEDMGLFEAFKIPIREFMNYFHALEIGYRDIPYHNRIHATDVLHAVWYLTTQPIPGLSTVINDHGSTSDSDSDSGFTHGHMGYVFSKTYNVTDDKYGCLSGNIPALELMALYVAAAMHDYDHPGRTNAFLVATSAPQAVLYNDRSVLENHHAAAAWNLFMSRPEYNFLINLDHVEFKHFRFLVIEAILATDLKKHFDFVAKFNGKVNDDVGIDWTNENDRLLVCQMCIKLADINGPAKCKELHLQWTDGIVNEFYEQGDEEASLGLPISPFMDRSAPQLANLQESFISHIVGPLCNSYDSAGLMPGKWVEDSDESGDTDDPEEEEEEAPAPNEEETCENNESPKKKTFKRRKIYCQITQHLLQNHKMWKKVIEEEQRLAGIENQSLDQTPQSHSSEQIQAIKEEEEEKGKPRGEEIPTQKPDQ
other members of the PDE family (Homo sapiens, UniProt Q13946), sequence (Q13946 whole entry): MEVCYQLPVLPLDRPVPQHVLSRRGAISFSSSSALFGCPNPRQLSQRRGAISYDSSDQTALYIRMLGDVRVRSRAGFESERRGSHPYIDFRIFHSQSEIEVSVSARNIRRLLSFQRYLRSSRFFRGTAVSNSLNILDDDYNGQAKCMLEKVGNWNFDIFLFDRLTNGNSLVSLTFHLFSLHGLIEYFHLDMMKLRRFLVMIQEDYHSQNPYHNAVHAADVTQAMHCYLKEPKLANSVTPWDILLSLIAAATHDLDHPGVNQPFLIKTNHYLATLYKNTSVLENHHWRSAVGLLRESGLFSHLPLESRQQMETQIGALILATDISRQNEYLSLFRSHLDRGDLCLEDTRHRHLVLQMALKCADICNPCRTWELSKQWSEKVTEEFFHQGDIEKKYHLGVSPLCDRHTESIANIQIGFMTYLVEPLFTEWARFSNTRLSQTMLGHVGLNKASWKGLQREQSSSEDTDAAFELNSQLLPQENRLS
other members of the PDE family (Homo sapiens, UniProt O00408), sequence (O00408 whole entry, canonical isoform): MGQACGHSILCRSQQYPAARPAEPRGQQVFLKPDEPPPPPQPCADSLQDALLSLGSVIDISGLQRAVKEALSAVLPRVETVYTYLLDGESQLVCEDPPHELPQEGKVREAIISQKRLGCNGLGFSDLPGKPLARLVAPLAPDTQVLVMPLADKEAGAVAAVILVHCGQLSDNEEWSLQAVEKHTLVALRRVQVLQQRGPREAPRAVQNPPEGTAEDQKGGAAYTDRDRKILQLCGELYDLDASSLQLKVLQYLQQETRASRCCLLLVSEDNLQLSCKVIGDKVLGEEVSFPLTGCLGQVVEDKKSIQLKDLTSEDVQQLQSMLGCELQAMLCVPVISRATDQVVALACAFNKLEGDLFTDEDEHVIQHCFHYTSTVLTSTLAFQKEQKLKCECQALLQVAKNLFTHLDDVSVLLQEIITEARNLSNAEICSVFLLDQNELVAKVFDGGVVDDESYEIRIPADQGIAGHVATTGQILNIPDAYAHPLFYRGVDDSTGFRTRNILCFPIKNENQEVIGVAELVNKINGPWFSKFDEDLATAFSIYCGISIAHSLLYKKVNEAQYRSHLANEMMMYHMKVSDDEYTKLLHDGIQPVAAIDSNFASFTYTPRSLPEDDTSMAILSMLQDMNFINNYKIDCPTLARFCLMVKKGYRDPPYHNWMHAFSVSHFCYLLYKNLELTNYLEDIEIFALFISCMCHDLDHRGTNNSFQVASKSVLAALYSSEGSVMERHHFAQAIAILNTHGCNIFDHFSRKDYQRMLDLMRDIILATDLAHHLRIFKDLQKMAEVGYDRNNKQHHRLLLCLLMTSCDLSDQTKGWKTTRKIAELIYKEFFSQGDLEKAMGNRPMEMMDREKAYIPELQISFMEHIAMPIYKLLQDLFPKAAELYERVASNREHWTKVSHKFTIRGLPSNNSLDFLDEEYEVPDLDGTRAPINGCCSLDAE
other members of the PDE family (Homo sapiens, UniProt Q9HCR9), sequence (Q9HCR9 whole entry): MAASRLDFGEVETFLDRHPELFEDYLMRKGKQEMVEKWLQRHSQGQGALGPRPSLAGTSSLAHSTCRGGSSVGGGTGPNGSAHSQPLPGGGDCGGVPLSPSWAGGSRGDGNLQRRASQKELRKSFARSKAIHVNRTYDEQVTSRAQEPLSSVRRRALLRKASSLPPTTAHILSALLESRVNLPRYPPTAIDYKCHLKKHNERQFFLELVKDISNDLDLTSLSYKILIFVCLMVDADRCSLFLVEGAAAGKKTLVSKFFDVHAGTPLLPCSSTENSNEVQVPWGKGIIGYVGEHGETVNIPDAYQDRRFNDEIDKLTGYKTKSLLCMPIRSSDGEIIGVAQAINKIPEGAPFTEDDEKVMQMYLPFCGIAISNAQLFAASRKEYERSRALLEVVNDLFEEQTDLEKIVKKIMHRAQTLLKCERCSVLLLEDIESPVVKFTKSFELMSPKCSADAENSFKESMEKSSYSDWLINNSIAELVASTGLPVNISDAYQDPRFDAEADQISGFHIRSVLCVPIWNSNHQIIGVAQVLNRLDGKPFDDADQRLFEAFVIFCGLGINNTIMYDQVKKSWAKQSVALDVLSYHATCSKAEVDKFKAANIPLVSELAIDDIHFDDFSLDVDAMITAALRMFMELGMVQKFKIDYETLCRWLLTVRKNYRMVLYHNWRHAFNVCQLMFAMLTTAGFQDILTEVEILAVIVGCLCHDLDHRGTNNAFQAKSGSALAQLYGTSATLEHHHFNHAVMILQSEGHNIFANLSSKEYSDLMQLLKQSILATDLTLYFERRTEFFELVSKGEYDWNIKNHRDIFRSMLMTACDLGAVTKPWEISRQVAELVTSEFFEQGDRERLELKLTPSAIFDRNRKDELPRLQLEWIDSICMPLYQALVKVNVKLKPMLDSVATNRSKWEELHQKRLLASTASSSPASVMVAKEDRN
other members of the PDE family (Homo sapiens, UniProt O76083), sequence (O76083 whole entry): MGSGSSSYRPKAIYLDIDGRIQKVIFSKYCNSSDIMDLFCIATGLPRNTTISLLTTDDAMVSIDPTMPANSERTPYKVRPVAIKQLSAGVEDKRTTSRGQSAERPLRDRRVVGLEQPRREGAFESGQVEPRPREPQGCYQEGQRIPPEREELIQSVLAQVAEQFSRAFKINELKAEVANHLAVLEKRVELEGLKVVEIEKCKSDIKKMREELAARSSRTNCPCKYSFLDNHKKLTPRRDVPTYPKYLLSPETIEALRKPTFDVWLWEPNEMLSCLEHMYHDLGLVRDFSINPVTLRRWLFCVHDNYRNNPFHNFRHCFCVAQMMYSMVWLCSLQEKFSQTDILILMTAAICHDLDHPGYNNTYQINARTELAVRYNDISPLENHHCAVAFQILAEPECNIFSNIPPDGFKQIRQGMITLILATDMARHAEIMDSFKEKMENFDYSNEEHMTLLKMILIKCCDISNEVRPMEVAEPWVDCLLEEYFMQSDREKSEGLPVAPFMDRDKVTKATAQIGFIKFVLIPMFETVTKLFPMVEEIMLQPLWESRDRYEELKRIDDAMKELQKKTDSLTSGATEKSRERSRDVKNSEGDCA

For the compound `CO[C@@H](C)Cn1cc(-c2c(C)nc3c(N4CCOCC4)ccnn23)cn1` [compound 131, 3-[1-[(2S)-2-methoxypropyl]-1H-pyrazol-4-yl]-2-methyl-8-(4-morpholinyl)-imidazo[1,2-b]pyridazine], the IC50 in assay [1] (setting [8]) was 0.0347 µM; in [1] (setting [9]) it was 0.0347 µM; at PDE4D3, above 10 µM; at PDE5A3, 8.51 µM; in [2], above 10 µM; in assay [3] it was above 10 µM. Besides, the IC50 in [4], in assay [5] and in [6] was above 10 µM each time. Besides, the ED50 (in general, the dose at which the effect has come halfway, by size or by number of responders) in [7] came to 3.1 mg/kg. On PDE10, the receptor occupancy at 10 mg/kg amounted to 59%.
Turning to `COCCn1cc(-c2c(C)nc3c(-c4ccncc4)cc(Cl)nn23)cn1` [compound 147, 6-chloro-3-[1-(2-methoxyethyl)-1H-pyrazol-4-yl]-2-methyl-8-(4-pyridinyl)-imidazo[1,2-b]pyridazine], the IC50 in [1] (setting [8]) is 0.0676 µM; in assay [1] (setting [9]), 0.0676 µM; at PDE4D3, 3.8 µM; at PDE5A3 it was 1.17 µM; in [2] it was above 10 µM; in assay [3], above 10 µM. Further, the IC50 is 3.55 µM in assay [4], above 10 µM in [5] and 3.8 µM in assay [6]. The same compound yielded an ED50 in assay [7] of 5 mg/kg. Also, the receptor occupancy at 10 mg/kg on PDE10 turned out to be 22%.
Consider `COCCOc1ccc(-c2c(C)nc3c(N4CCOCC4)ccnn23)cn1` [compound 16, 3-[6-(2-methoxyethoxy)-3-pyridinyl]-2-methyl-8-(4-morpholinyl)-imidazo[1,2-b]pyridazine], for which the IC50 in assay [1] (setting [8]) was 0.12 µM; in assay [1] (setting [9]), 0.12 µM; on PDE4D3, above 10 µM; at PDE5A3, above 10 µM; in assay [2] it was above 10 µM; in [3] it was above 10 µM. Further, the IC50 in assay [4], in [5] and in assay [6] was above 10 µM in each case. This compound registered a 50% effective dose (ED50) in assay [7] of 3.1 mg/kg. Moreover, at PDE10, the receptor occupancy at 10 mg/kg was determined as 52%.
With `Cc1nc2c(-c3ccncc3)ccnn2c1-c1cnn(CC(C)C)c1` [compound 124, 2-methyl-3-[1-(2-methylpropyl)-1H-pyrazol-4-yl]-8-(4-pyridinyl)-imidazo[1,2-b]pyridazine], the IC50 was 0.0224 µM in [1] (setting [8]); 0.0224 µM in assay [1] (setting [9]); 7.41 µM on PDE4D3; 1.95 µM at PDE5A3; 8.71 µM in [2]; above 10 µM in [3]. For the same compound, the IC50 in assay [4] was 5.37 µM; in [5] it was 6.92 µM; in [6] it was 5.37 µM. The ED50 worked out at 1.2 mg/kg in assay [7] and 3 mg/kg on PDE10.
Turning to `COCCn1cc(-c2c(C)nc3c(N4CCOCC4)cc(C4CC4)nn23)cn1` [compound 125, 6-cyclopropyl-3-[1-(2-methoxyethyl)-1H-pyrazol-4-yl]-2-methyl-8-(4-morpholinyl)-imidazo[1,2-b]pyridazine], the IC50 is 0.0832 µM in assay [1] (setting [8]); 0.0832 µM in [1] (setting [9]); 2.09 µM at PDE4D3; 1.26 µM on PDE5A3; 8.51 µM in assay [2]; above 10 µM in assay [3]. Besides, the results for the IC50 in [4], in [5] and in assay [6] were above 10 µM, above 10 µM and 4.47 µM, respectively. The ED50 in [7] is at least 2.5 mg/kg; on PDE10, above 10 mg/kg. Besides, on PDE10 (dose response sc, data between brackets), the “% occupancy at the highest dose tested” value worked out at 42%.
Turning to `CCc1ccc(-c2c(C)nc3c(N4CCOCC4)ccnn23)cn1` [compound 28, 3-(6-ethyl-3-pyridinyl)-2-methyl-8-(4-morpholinyl)-imidazo[1,2-b]pyridazine], the IC50 was 0.0832 µM in assay [1] (setting [8]); 0.0832 µM in [1] (setting [9]); 13.2 µM at PDE4D3; 13.8 µM at PDE5A3; 26.9 µM in assay [2]; above 100 µM in [3]. In addition, the IC50 in [4] is 25.7 µM; in [5], 30.2 µM; in assay [6], 30.2 µM. For the same compound, the ED50 in assay [7] worked out at 1.2 mg/kg; at PDE10, 1.1 mg/kg.
For `COC(C)(C)Cn1cc(-c2c(C3CC3)nc3c(-c4ccncc4)ccnn23)cn1` [compound 143, 2-cyclopropyl-3-[1-(2-methoxy-2-methylpropyl)-1H-pyrazol-4-yl]-8-(4-pyridinyl)-imidazo[1,2-b]pyridazine], the IC50 in assay [1] (setting [8]) is 0.0174 µM; in assay [1] (setting [9]), 0.0174 µM; at PDE4D3, 5.13 µM; at PDE5A3, 0.646 µM; in assay [2], 3.98 µM; in assay [3], above 10 µM. The results for the IC50 in assay [4], in assay [5] and in [6] were 5.89 µM, 1.45 µM and 1.95 µM, respectively. This compound also came in with an ED50 in assay [7] of 1.2 mg/kg.
